Results taken from ChEMBL document CHEMBL4364344, “Design, synthesis and evaluation of activity and pharmacokinetic profile of new derivatives of xanthone and piperazine in the central nervous system” (Bioorg Med Chem Lett, 2019).
Values belong to the molecule of their own block, whether it stands above or below them. The source made the active and inactive calls. The calls are words filed in the database; no cut-off is given here.

Tests used:
[1] = test system: Mus musculus; experiment: Antidepressant-like activity in CD-1 mouse assessed as reduction in immobility at 10 mg/kg, ip pretreated for 30 mins and measured after 6 mins by force swim test relative to control; assay type: functional; design: scale not given: the % may be the effect or the level left
[2] = molecular target: 5-hydroxytryptamine receptor 2A (Homo sapiens, UniProt P28223); experiment: Displacement of [3H]-ketanserin from human 5-HT2A receptor expressed in CHO-K1 cell membranes after 60 mins by microbeta scintillation counting analysis
[3] = molecular target: Serotonin 2 (5-HT2) receptor (Rattus norvegicus) (UniProt P30994+P08909+P14842); experiment: Displacement of [3H]ketanserin from 5-HT2 receptor in Wistar rat brain cortex membrane at 10 uM after 40 mins by scintillation counting analysis relative to control; assay type: cell membranes
[4] = test system: Mus musculus; experiment: Anxiolytic activity in Swiss CD-1 mouse assessed as increase in number of punished crossings at 5 mg/kg, ip administered 30 mins prior to test and measured for 60 secs by four-plate test relative to control; assay type: functional
[5] = test system: Mus musculus; experiment: Antidepressant-like activity in albino Swiss CD-1 mouse assessed as reduction in immobility at 20 mg/kg, ip pretreated for 30 mins and measured after 6 mins by force swim test relative to control; assay type: functional; design: scale not given: the % may be the effect or the level left
[6] = Mutagenicity in Salmonella typhimurium TA98 at 2.5 ug/plate preincubated for 20 mins followed by addition of top agar and measured after 48 hrs by Ames test; assay type: toxicity; details: salmonella enterica subsp. enterica serovar typhimurium
[7] = Mutagenicity in Salmonella typhimurium TA100 at 500 ug/plate preincubated for 20 mins followed by addition of top agar and measured after 48 hrs by Ames test; assay type: toxicity; details: salmonella enterica subsp. enterica serovar typhimurium
[8] = Apparent clearance in CD-1 mouse plasma at 5 mg/kg, ip measured up to 480 mins by LC/ESI-MS/MS analysis; assay type: ADME, organism-based
[9] = Mutagenicity in Salmonella typhimurium TA98 at 500 ug/plate preincubated for 20 mins followed by addition of top agar and measured after 48 hrs by Ames test; assay type: toxicity; details: salmonella enterica subsp. enterica serovar typhimurium
[10] = Drug metabolism in mouse liver microsomes assessed as metabolite formation by measuring retention time at 20 uM after 30 to 60 mins in presence of NADP by UPLC/MS analysis; assay type: ADME, Microsome
[11] = Mutagenicity in Salmonella typhimurium TA100 at 250 ug/plate preincubated for 20 mins followed by addition of top agar and measured after 48 hrs by Ames test; assay type: toxicity; details: salmonella enterica subsp. enterica serovar typhimurium
[12] = AUC (0 to t) in CD-1 mouse plasma at 5 mg/kg, ip measured up to 480 mins by LC/ESI-MS/MS analysis; assay type: ADME, organism-based; design: dose 5 mg/kg, time < 8 hr, route intraperitoneal
[13] = Terminal half life in CD-1 mouse brain at 5 mg/kg, ip measured up to 480 mins by LC/ESI-MS/MS analysis; assay type: ADME, organism-based; details: read-out: beta t1/2
[14] = Mutagenicity in Salmonella typhimurium TA98 at 250 ug/plate preincubated for 20 mins followed by addition of top agar and measured after 48 hrs by Ames test; assay type: toxicity; details: salmonella enterica subsp. enterica serovar typhimurium
[15] = MRT in CD-1 mouse brain at 5 mg/kg, ip measured up to 480 mins by LC/ESI-MS/MS analysis; assay type: ADME, organism-based
[16] = test system: Mus musculus; experiment: Antidepressant-like activity in albino Swiss CD-1 mouse assessed as reduction in immobility at 10 mg/kg, ip pretreated for 30 mins and measured after 6 mins by force swim test relative to control; assay type: functional; design: scale not given: the % may be the effect or the level left
[17] = Mutagenicity in Salmonella typhimurium TA102 at 5 ug/plate preincubated for 20 mins followed by addition of top agar and measured after 48 hrs by Ames test; assay type: toxicity; details: salmonella enterica subsp. enterica serovar typhimurium
[18] = Cmax in CD-1 mouse brain at 5 mg/kg, ip measured up to 480 mins by LC/ESI-MS/MS analysis; assay type: ADME, organism-based; design: dose 5 mg/kg, route intraperitoneal
[19] = Terminal half life in CD-1 mouse plasma at 5 mg/kg, ip measured up to 480 mins by LC/ESI-MS/MS analysis; assay type: ADME, organism-based; details: read-out: beta t1/2
[20] = Ratio of drug uptake in CD-1 mouse brain to plasma at 5 mg/kg, ip measured up to 480 mins by LC/ESI-MS/MS analysis; assay type: ADME, organism-based; details: read-out: BPR
[21] = Mutagenicity in Salmonella typhimurium TA102 at 50 ug/plate preincubated for 20 mins followed by addition of top agar and measured after 48 hrs by Ames test; assay type: toxicity; details: salmonella enterica subsp. enterica serovar typhimurium
[22] = AUC (0 to total) in CD-1 mouse brain at 5 mg/kg, ip measured up to 480 mins by LC/ESI-MS/MS analysis; assay type: ADME, organism-based; details: in vivo, 8 h
[23] = test system: Mus musculus; experiment: Antidepressant-like activity in albino Swiss CD-1 mouse assessed as reduction in immobility at 5 mg/kg, ip administered 30 mins prior to test and measured after 6 mins by force swim test relative to control; assay type: functional; design: scale not given: the % may be the effect or the level left
[24] = Mutagenicity in Salmonella typhimurium TA102 at 250 ug/plate preincubated for 20 mins followed by addition of top agar and measured after 48 hrs by Ames test; assay type: toxicity; details: salmonella enterica subsp. enterica serovar typhimurium
[25] = Cmax in CD-1 mouse plasma at 5 mg/kg, ip measured up to 480 mins by LC/ESI-MS/MS analysis; assay type: ADME, organism-based; design: dose 5 mg/kg, route intraperitoneal
[26] = Mutagenicity in Salmonella typhimurium TA100 at 5 ug/plate preincubated for 20 mins followed by addition of top agar and measured after 48 hrs by Ames test; assay type: toxicity; details: salmonella enterica subsp. enterica serovar typhimurium
[27] = Mutagenicity in Salmonella typhimurium TA100 at 50 ug/plate preincubated for 20 mins followed by addition of top agar and measured after 48 hrs by Ames test; assay type: toxicity; details: salmonella enterica subsp. enterica serovar typhimurium
[28] = Apparent volume of distribution in CD-1 mouse plasma at 5 mg/kg, ip measured up to 480 mins by LC/ESI-MS/MS analysis; assay type: ADME, organism-based
[29] = Tmax in CD-1 mouse plasma at 5 mg/kg, ip measured up to 480 mins by LC/ESI-MS/MS analysis; assay type: ADME, organism-based
[30] = Mutagenicity in Salmonella typhimurium TA98 at 50 ug/plate preincubated for 20 mins followed by addition of top agar and measured after 48 hrs by Ames test; assay type: toxicity; details: salmonella enterica subsp. enterica serovar typhimurium
[31] = Tmax in CD-1 mouse brain at 5 mg/kg, ip measured up to 480 mins by LC/ESI-MS/MS analysis; assay type: ADME, organism-based
[32] = MRT in CD-1 mouse plasma at 5 mg/kg, ip measured up to 480 mins by LC/ESI-MS/MS analysis; assay type: ADME, organism-based
[33] = Mutagenicity in Salmonella typhimurium TA98 at 5 ug/plate preincubated for 20 mins followed by addition of top agar and measured after 48 hrs by Ames test; assay type: toxicity; details: salmonella enterica subsp. enterica serovar typhimurium
[34] = Mutagenicity in Salmonella typhimurium TA102 at 500 ug/plate preincubated for 20 mins followed by addition of top agar and measured after 48 hrs by Ames test; assay type: toxicity; details: salmonella enterica subsp. enterica serovar typhimurium
[35] = test system: Mus musculus; experiment: Anxiolytic activity in albino Swiss CD-1 mouse assessed as increase in number of punished crossings at 20 mg/kg, ip administered 30 mins prior to test by four-plate test relative to control; assay type: functional
[36] = test system: Mus musculus; experiment: Anxiolytic activity in albino Swiss CD-1 mouse assessed as increase in number of punished crossings at 5 mg/kg, ip administered 30 mins prior to test by four-plate test relative to control; assay type: functional
[37] = Mutagenicity in Salmonella typhimurium TA100 preincubated for 20 mins followed by addition of top agar and measured after 48 hrs by Ames test; assay type: toxicity; details: salmonella enterica subsp. enterica serovar typhimurium
[38] = test system: Mus musculus; experiment: Antidepressant-like activity in Swiss CD-1 mouse assessed as reduction in immobility at 10 mg/kg, ip pretreated for 30 mins and measured after 6 mins by force swim test; assay type: functional, organism-based

Serotonin 2 (5-HT2) receptor (Rattus norvegicus), sequence (P08909 whole entry, looked up): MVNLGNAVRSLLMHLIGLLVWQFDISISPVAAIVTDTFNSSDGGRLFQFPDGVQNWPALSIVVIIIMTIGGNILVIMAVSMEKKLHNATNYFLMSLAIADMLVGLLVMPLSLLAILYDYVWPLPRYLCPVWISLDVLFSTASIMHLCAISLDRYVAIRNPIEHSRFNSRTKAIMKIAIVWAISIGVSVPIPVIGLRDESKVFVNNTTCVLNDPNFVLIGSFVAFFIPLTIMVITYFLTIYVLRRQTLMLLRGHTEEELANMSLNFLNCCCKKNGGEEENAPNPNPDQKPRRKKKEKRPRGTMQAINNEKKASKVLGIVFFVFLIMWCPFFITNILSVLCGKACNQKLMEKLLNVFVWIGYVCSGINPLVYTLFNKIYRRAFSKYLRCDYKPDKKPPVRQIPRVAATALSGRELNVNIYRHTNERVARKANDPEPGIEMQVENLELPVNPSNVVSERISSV
Serotonin 2 (5-HT2) receptor (Rattus norvegicus), sequence (P14842 whole entry, looked up): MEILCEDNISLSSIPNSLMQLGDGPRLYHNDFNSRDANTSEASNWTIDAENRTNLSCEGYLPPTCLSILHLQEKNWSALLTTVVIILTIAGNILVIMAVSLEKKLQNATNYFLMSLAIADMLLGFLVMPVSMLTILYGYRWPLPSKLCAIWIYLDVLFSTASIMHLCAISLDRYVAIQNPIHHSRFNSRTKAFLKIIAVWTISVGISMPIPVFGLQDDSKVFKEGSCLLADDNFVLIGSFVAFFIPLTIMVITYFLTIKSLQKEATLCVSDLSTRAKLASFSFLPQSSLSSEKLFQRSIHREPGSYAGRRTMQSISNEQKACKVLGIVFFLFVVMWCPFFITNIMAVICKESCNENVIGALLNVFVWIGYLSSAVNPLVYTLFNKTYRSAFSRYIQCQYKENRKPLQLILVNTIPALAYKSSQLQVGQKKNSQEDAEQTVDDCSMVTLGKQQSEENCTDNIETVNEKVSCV
Serotonin 2 (5-HT2) receptor (Rattus norvegicus), sequence (P30994 whole entry, looked up): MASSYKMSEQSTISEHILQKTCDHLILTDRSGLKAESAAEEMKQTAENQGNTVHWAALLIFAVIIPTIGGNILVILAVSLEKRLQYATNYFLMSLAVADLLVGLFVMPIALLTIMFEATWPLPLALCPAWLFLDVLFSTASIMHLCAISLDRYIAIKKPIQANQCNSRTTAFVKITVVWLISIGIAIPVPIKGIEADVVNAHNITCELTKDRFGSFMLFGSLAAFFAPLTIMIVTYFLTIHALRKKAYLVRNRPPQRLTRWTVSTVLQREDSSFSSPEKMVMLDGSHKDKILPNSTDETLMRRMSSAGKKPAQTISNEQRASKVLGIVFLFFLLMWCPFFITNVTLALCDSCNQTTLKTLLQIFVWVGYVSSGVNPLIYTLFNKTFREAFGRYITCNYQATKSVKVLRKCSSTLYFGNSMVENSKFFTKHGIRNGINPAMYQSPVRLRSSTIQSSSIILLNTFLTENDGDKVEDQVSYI
5-hydroxytryptamine receptor 2A, sequence (P28223 whole entry): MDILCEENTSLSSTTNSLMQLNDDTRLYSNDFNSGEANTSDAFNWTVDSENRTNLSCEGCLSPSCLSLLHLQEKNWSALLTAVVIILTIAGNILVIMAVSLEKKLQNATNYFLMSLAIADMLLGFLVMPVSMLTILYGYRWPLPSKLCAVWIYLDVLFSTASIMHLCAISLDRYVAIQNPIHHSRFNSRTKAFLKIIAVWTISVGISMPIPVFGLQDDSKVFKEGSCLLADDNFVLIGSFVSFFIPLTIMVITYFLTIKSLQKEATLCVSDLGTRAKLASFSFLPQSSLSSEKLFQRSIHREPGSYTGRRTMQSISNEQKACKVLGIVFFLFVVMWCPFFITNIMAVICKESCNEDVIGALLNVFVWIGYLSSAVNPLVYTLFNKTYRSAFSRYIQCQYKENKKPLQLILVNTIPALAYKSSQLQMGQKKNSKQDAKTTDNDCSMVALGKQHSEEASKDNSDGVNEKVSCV

- Ki [2]: 2180 nM
SMILES: COc1ccc2c(=O)c3cccc(CN4CCN(c5ccccc5OC)CC4)c3oc2c1.Cl
- Activity [1]: 24%

- inhibition [3]: 70%
SMILES: COc1ccccc1N1CCN(Cc2cccc3c(=O)c4ccccc4oc23)CC1

- inhibition [3]: 39%
SMILES: O=c1c2ccc(Cl)cc2oc2ccc(CN3CCN(CCO)CC3)cc12

- inhibition [3]: 75%
SMILES: COc1ccc(OCCCN2CCN(Cc3ccc4oc5cc(OC)ccc5c(=O)c4c3)CC2)cc1

- inhibition [3]: 3%
SMILES: CCOC(=O)N1CCN(Cc2cccc3c(=O)c4ccccc4oc23)CC1

SMILES: CN1CCN(Cc2cccc3c(=O)c4ccc(Cl)cc4oc23)CC1.Cl.Cl
- Activity [4]: 100%
- Activity [5]: 28%

- inhibition [3]: 75%
SMILES: O=c1c2ccc(Cl)cc2oc2c(CN3CCN(c4ccccc4)CC3)cccc12

- inhibition [3]: 88%
SMILES: O=c1c2ccccc2oc2c(CN3CCN(c4ccccc4)CC3)cccc12

SMILES: Nc1ccc([N+](=O)[O-])cc1N
- Activity_index [6]: 10.79

- CL/F [8]: 386 mL/min/kg
- inhibition [3]: 0%
- Retention_time [10]: 3.05 min
- AUC(0-t) at 8 h [12]: 215 ng·h/mL
- half-life [13]: 143 min
- MRT [15]: 24.1 min
- Cmax [18]: 2630 ng/mL
- half-life [19]: 48.3 min
- Kp at 8 h [20]: 4.85
- AUCt [22]: 62578 ng·min/g
- Cmax [25]: 462 ng/mL
- Vd/F [28]: 26.9 L/kg
- Tmax [29]: 15 min
- Tmax [31]: 15 min
- MRT [32]: 40.3 min
SMILES: Cl.Cl.O=c1c2ccccc2oc2c(CN3CCN(CCO)CC3)cccc12
- Activity_index [7]: 0.31
- Activity_index [9]: 0.72
- Activity_index [11]: 0.46
- Activity_index [14]: 0.52
- Activity [16]: 25.6%
- Activity_index [17]: 0.74
- Activity_index [21]: 0.54
- Activity [23]: 38.1%
- Activity_index [24]: 0.39
- Activity_index [26]: 0.69
- Activity_index [27]: 0.79
- Activity_index [30]: 0.86
- Activity_index [33]: 1.34
- Activity_index [34]: 0.26

- CL/F [8]: 165 mL/min/kg
- inhibition [3]: 22%
- Retention_time [10]: 4.12 min
- AUC(0-t) at 8 h [12]: 481 ng·h/mL
- half-life [13]: 72 min
- MRT [15]: 74.6 min
- Cmax [18]: 936 ng/mL
- half-life [19]: 184 min
- Kp at 8 h [20]: 2.86
- AUCt [22]: 82715 ng·min/g
- Cmax [25]: 468 ng/mL
- Vd/F [28]: 43.8 L/kg
- Tmax [29]: 15 min
- Tmax [31]: 30 min
- MRT [32]: 60.5 min
SMILES: CCOC(=O)N1CCN(Cc2cccc3c(=O)c4ccc(OC)cc4oc23)CC1.Cl.Cl
- Activity_index [7]: 0.34
- Activity_index [9]: 1
- Activity [35]: 55.3%
- Activity_index [11]: 0.42
- Activity_index [14]: 0.72
- Activity [16]: 50.2%
- Activity_index [17]: 0.82
- Activity_index [21]: 0.77
- Activity [36]: 70.1%
- Activity_index [24]: 1.3
- Activity_index [26]: 0.68
- Activity_index [27]: 0.61
- Activity_index [30]: 0.79
- Activity_index [33]: 0.76
- Activity_index [34]: 0.87

- CL/F [8]: 226 mL/min/kg
- inhibition [3]: 50%
- Retention_time [10]: 4.64 min
- AUC(0-t) at 8 h [12]: 334 ng·h/mL
- half-life [13]: 159 min
- MRT [15]: 152 min
- Cmax [18]: 3690 ng/mL
- half-life [19]: 126 min
- Kp at 8 h [20]: 31.6
- AUCt [22]: 633023 ng·min/g
- Cmax [25]: 136 ng/mL
- Vd/F [28]: 41.3 L/kg
- Tmax [29]: 15 min
- Tmax [31]: 30 min
- MRT [32]: 129 min
SMILES: CN1CCN(Cc2ccc3oc4ccc(Cl)cc4c(=O)c3c2)CC1
- Activity_index [7]: 2.93
- Activity_index [37]: Dose-dependent effect
- Activity [38]: inactive
- Activity_index [11]: 2.08
- Activity_index [17]: 1.04
- Activity_index [21]: 0.86
- Activity [23]: 37.8%
- Activity_index [26]: 1.21
- Activity_index [27]: 0.43
- Activity [5]: 24.7%
- Activity_index [30]: 0.78
- Activity_index [33]: 1.04

SMILES: [N-]=[N+]=[N-].[Na+] [SODIUM AZIDE]
- Activity_index [26]: 2.26

- inhibition [3]: 91%
SMILES: COc1ccc2c(=O)c3cccc(CN4CCN(c5ccccc5)CC4)c3oc2c1

- Ki [2]: 561 nM
SMILES: COc1ccc2c(=O)c3cc(CN4CCN(c5ccccc5OC)CC4)ccc3oc2c1.Cl
- Activity [1]: 32%

SMILES: Cl.Cl.O=c1c2ccc(Cl)cc2oc2c(CN3CCN(CCO)CC3)cccc12
- Activity [16]: 30%

- inhibition [3]: 43%
SMILES: O=c1c2cc(Cl)ccc2oc2ccc(CN3CCN(CCO)CC3)cc12

- inhibition [3]: 41%
SMILES: COc1ccc2c(=O)c3cccc(CN4CCN(Cc5ccccc5)CC4)c3oc2c1

- inhibition [3]: 38%
SMILES: COc1ccc(OCCCN2CCN(Cc3cccc4c(=O)c5ccc(OC)cc5oc34)CC2)cc1
